Results reported in patent publication US20070049564A1 (Wyeth, priority 2005, published 2007).
Values after ≈ are worked out from the molar mass of the structure shown. Like-named read-outs stand apart in the source and are kept apart here.

How the values were obtained:
[1] = tested on: E. coli GC 2233; assay: MIC, broth microdilution; details: Escherichia coli
[2] = tested on: S. pneumoniae+ GC 4465; assay: MIC, broth microdilution; details: Streptococcus pneumoniae
[3] = tested on: E. coli GC 4559; assay: MIC, broth microdilution; details: Escherichia coli
[4] = tested on: S. epidermidis GC 4935; assay: MIC, broth microdilution; details: Staphylococcus epidermidis
[5] = tested on: E. coli GC 2235; assay: MIC, broth microdilution; details: Escherichia coli
[6] = tested on: P. aeruginosa GC 2214; assay: MIC, broth microdilution; details: Pseudomonas aeruginosa
[7] = tested on: S. aureus GC 6335; assay: MIC, broth microdilution; details: Staphylococcus aureus
[8] = tested on: S. aureus GC 1079; assay: MIC, broth microdilution; details: Staphylococcus aureus
[9] = tested on: S. aureus GC 1131; assay: MIC, broth microdilution; details: Staphylococcus aureus
[10] = tested on: E. coli GC 1073; assay: MIC, broth microdilution; details: Escherichia coli
[11] = tested on: E. coli GC 2234; assay: MIC, broth microdilution; details: Escherichia coli
[12] = tested on: E. coli GC 2270; assay: MIC, broth microdilution; details: Escherichia coli
[13] = tested on: E. faecium GC 4556; assay: MIC, broth microdilution; details: Enterococcus faecium
[14] = tested on: E. coli GC 2236; assay: MIC, broth microdilution; details: Escherichia coli
[15] = tested on: E. faecalis GC 2242; assay: MIC, broth microdilution; details: Enterococcus faecalis
[16] = tested on: S. aureus GC 2216; assay: MIC, broth microdilution; details: Staphylococcus aureus
[17] = tested on: c. albicans GC 3066; assay: MIC, broth microdilution
[18] = tested on: Staph. aureus Smith; assay: In vivo activity (oral, iv; ED50) against Staph. aureus Smith in mice
Description: Representative examples of compounds of Formula I were tested for the oral efficacy using S. aureus Smith in mice.

[19] = tested on: S. pyogenes GC 4563; assay: MIC, broth microdilution; details: Streptococcus pyogenes
[20] = tested on: E. coli GC 2271; assay: MIC, broth microdilution; details: Escherichia coli

Compound `CCC(=O)OCOC(=O)N(CC(=O)Nc1cc(N(C)C)c2c(c1O)C(=O)C1=C(O)[C@]3(O)C(=O)C(C(N)=O)=C(O)[C@@H](N(C)C)[C@@H]3C[C@@H]1C2)C(C)(C)C` [Example 49, ({[(2-{[(5aR,6aS,7S,10aS)-9-(aminocarbonyl)-4,7-bis(dimethylamino)-1,8,10a,11-tetrahydroxy-10,12-dioxo-5,5a,6,6a,7,10,10a,12-octahydrotetracen-2-yl]amino}-2-oxoethyl)(tert-butyl)amino]carbonyl}oxy)methyl propionate] has an MIC ([1]; GC2233, read-out: MINIMAL INHIBITORY CONCENTRATION MIC, Human Serum) of 4 µg/mL (≈ 5.59 µM), an MIC ([1]; GC2233, read-out: MINIMAL INHIBITORY CONCENTRATION MIC, Mouse Serum) of 0.25 µg/mL (≈ 0.349 µM) and an MIC ([1]; GC2233, read-out: MINIMAL INHIBITORY CONCENTRATION MIC, Water) of 8 µg/mL (≈ 11.2 µM). The MIC ([2]; read-out: MINIMAL INHIBITORY CONCENTRATION MIC, Human Serum) was 1 µg/mL (≈ 1.4 µM), the MIC ([2]; read-out: MINIMAL INHIBITORY CONCENTRATION MIC, Mouse Serum) was 1 µg/mL (≈ 1.4 µM) and the MIC ([2]; read-out: MINIMAL INHIBITORY CONCENTRATION MIC, Water) was 1 µg/mL (≈ 1.4 µM). It also gave an MIC ([3]; GC4559, read-out: MINIMAL INHIBITORY CONCENTRATION MIC, Human Serum) of 8 µg/mL (≈ 11.2 µM), an MIC ([3]; GC4559, read-out: MINIMAL INHIBITORY CONCENTRATION MIC, Mouse Serum) of 0.5 µg/mL (≈ 0.699 µM) and an MIC ([3]; GC4559, read-out: MINIMAL INHIBITORY CONCENTRATION MIC, Water) of 16 µg/mL (≈ 22.4 µM). The MIC ([4]; GC4935, read-out: MINIMAL INHIBITORY CONCENTRATION MIC, Human Serum) was 1 µg/mL (≈ 1.4 µM), the MIC ([4]; GC4935, read-out: MINIMAL INHIBITORY CONCENTRATION MIC, Mouse Serum) was 1 µg/mL (≈ 1.4 µM) and the MIC ([4]; GC4935, read-out: MINIMAL INHIBITORY CONCENTRATION MIC, Water) was 2 µg/mL (≈ 2.79 µM). The MIC ([5]; GC2235, read-out: MINIMAL INHIBITORY CONCENTRATION MIC, Human Serum) was 4 µg/mL (≈ 5.59 µM), the MIC ([5]; GC2235, read-out: MINIMAL INHIBITORY CONCENTRATION MIC, Mouse Serum) was 0.5 µg/mL (≈ 0.699 µM) and the MIC ([5]; GC2235, read-out: MINIMAL INHIBITORY CONCENTRATION MIC, Water) was 8 µg/mL (≈ 11.2 µM). The MIC ([6]; GC2214, read-out: MINIMAL INHIBITORY CONCENTRATION MIC, Human Serum) was greater than 64 µg/mL, the MIC ([6]; GC2214, read-out: MINIMAL INHIBITORY CONCENTRATION MIC, Mouse Serum) was 32 µg/mL (≈ 44.7 µM) and the MIC ([6]; GC2214, read-out: MINIMAL INHIBITORY CONCENTRATION MIC, Water) was greater than 64 µg/mL. It also gave an MIC ([7]; GC6335, read-out: MINIMAL INHIBITORY CONCENTRATION MIC, Human Serum) of 1 µg/mL (≈ 1.4 µM), an MIC ([7]; GC6335, read-out: MINIMAL INHIBITORY CONCENTRATION MIC, Mouse Serum) of 1 µg/mL (≈ 1.4 µM) and an MIC ([7]; GC6335, read-out: MINIMAL INHIBITORY CONCENTRATION MIC, Water) of 2 µg/mL (≈ 2.79 µM). It also gave an MIC ([8]; GC1079, read-out: MINIMAL INHIBITORY CONCENTRATION MIC, Human Serum) of 0.5 µg/mL (≈ 0.699 µM), an MIC ([8]; GC1079, read-out: MINIMAL INHIBITORY CONCENTRATION MIC, Mouse Serum) of 0.5 µg/mL (≈ 0.699 µM) and an MIC ([8]; GC1079, read-out: MINIMAL INHIBITORY CONCENTRATION MIC, Water) of 0.5 µg/mL (≈ 0.699 µM). It also gave an MIC ([9]; GC1131, read-out: MINIMAL INHIBITORY CONCENTRATION MIC, Human Serum) of 0.5 µg/mL (≈ 0.699 µM), an MIC ([9]; GC1131, read-out: MINIMAL INHIBITORY CONCENTRATION MIC, Mouse Serum) of 0.5 µg/mL (≈ 0.699 µM) and an MIC ([9]; GC1131, read-out: MINIMAL INHIBITORY CONCENTRATION MIC, Water) of 0.5 µg/mL (≈ 0.699 µM). It also gave an MIC ([10]; GC1073, read-out: MINIMAL INHIBITORY CONCENTRATION MIC, Human Serum) of 8 µg/mL (≈ 11.2 µM), an MIC ([10]; GC1073, read-out: MINIMAL INHIBITORY CONCENTRATION MIC, Mouse Serum) of 0.5 µg/mL (≈ 0.699 µM) and an MIC ([10]; GC1073, read-out: MINIMAL INHIBITORY CONCENTRATION MIC, Water) of 32 µg/mL (≈ 44.7 µM). The MIC ([11]; GC2234, read-out: MINIMAL INHIBITORY CONCENTRATION MIC, Human Serum) was 4 µg/mL (≈ 5.59 µM), the MIC ([11]; GC2234, read-out: MINIMAL INHIBITORY CONCENTRATION MIC, Mouse Serum) was 0.25 µg/mL (≈ 0.349 µM) and the MIC ([11]; GC2234, read-out: MINIMAL INHIBITORY CONCENTRATION MIC, Water) was 16 µg/mL (≈ 22.4 µM). It also gave an MIC ([12]; GC2270, read-out: MINIMAL INHIBITORY CONCENTRATION MIC, Human Serum) of 4 µg/mL (≈ 5.59 µM), an MIC ([12]; GC2270, read-out: MINIMAL INHIBITORY CONCENTRATION MIC, Mouse Serum) of 0.5 µg/mL (≈ 0.699 µM) and an MIC ([12]; GC2270, read-out: MINIMAL INHIBITORY CONCENTRATION MIC, Water) of 16 µg/mL (≈ 22.4 µM). It also gave an MIC ([13]; GC4556, read-out: MINIMAL INHIBITORY CONCENTRATION MIC, Human Serum) of 1 µg/mL (≈ 1.4 µM), an MIC ([13]; GC4556, read-out: MINIMAL INHIBITORY CONCENTRATION MIC, Mouse Serum) of 0.5 µg/mL (≈ 0.699 µM) and an MIC ([13]; GC4556, read-out: MINIMAL INHIBITORY CONCENTRATION MIC, Water) of 2 µg/mL (≈ 2.79 µM). For the same compound, the MIC ([14]; GC2236, read-out: MINIMAL INHIBITORY CONCENTRATION MIC, Human Serum) was 4 µg/mL (≈ 5.59 µM), the MIC ([14]; GC2236, read-out: MINIMAL INHIBITORY CONCENTRATION MIC, Mouse Serum) was 0.5 µg/mL (≈ 0.699 µM) and the MIC ([14]; GC2236, read-out: MINIMAL INHIBITORY CONCENTRATION MIC, Water) was 16 µg/mL (≈ 22.4 µM). For the same compound, the MIC ([15]; GC2242, read-out: MINIMAL INHIBITORY CONCENTRATION MIC, Human Serum) was 1 µg/mL (≈ 1.4 µM), the MIC ([15]; GC2242, read-out: MINIMAL INHIBITORY CONCENTRATION MIC, Mouse Serum) was 0.5 µg/mL (≈ 0.699 µM) and the MIC ([15]; GC2242, read-out: MINIMAL INHIBITORY CONCENTRATION MIC, Water) was 2 µg/mL (≈ 2.79 µM). The MIC ([16]; GC2216, read-out: MINIMAL INHIBITORY CONCENTRATION MIC, Human Serum) was 0.25 µg/mL (≈ 0.349 µM), the MIC ([16]; GC2216, read-out: MINIMAL INHIBITORY CONCENTRATION MIC, Mouse Serum) was 0.25 µg/mL (≈ 0.349 µM) and the MIC ([16]; GC2216, read-out: MINIMAL INHIBITORY CONCENTRATION MIC, Water) was 0.5 µg/mL (≈ 0.699 µM). For the same compound, the MIC ([17]; Candida albicans, GC3066, read-out: MINIMAL INHIBITORY CONCENTRATION MIC) was greater than 64 µg/mL, the “MINIMAL INHIBITORY CONCENTRATION MIC” value ([17]; Human Serum) was greater than 64 UG/ML and the “MINIMAL INHIBITORY CONCENTRATION MIC” value ([17]; Mouse Serum) was greater than 64 UG/ML. The ED50 ([18]; Staphylococcus aureus, in Mus musculus, iv, read-out: ED50 SIV (Staph aureus Smith)) was 0.92 mg/kg, the ED50 ([18]; Staphylococcus aureus, in Mus musculus, po, read-out: ED50 SOD (Staph aureus Smith)) was 16 mg/kg and the ED50 ([18]; Staphylococcus aureus, in Mus musculus, po, read-out: ED50 Staph Smith SOD) was 16.6 mg/kg. The ED50 ([18]; iv, read-out: ED50 Staph Smith SIV) was 0.92 mg/kg, the MIC ([19]; GC4563, read-out: MINIMAL INHIBITORY CONCENTRATION MIC, Human Serum) was 0.12 µg/mL (≈ 0.168 µM) and the MIC ([19]; GC4563, read-out: MINIMAL INHIBITORY CONCENTRATION MIC, Mouse Serum) was 0.12 µg/mL (≈ 0.168 µM). The MIC ([19]; GC4563, read-out: MINIMAL INHIBITORY CONCENTRATION MIC, Water) was 0.12 µg/mL (≈ 0.168 µM), the MIC ([20]; GC2271, read-out: MINIMAL INHIBITORY CONCENTRATION MIC, Human Serum) was 4 µg/mL (≈ 5.59 µM) and the MIC ([20]; GC2271, read-out: MINIMAL INHIBITORY CONCENTRATION MIC, Mouse Serum) was 0.25 µg/mL (≈ 0.349 µM). It also gave an MIC ([20]; GC2271, read-out: MINIMAL INHIBITORY CONCENTRATION MIC, Water) of 8 µg/mL (≈ 11.2 µM).
